{
  "source": "patent US9353156B2",
  "about": "“Oligopeptide compounds and uses thereof” (Cytovation AS, priority 2010, dated 2016)",
  "key": {"[1]": {"test_system": "142 cells, HFF1 cells, 143 carcinoma cells, HOS sarcoma cell line (FIG. 5)", "assay": "LIVE/DEAD kit, fluorescence microscopy of monolayers (FIG. 5, text)", "assay_type": "cell-based", "conditions": "10 μg/ml of peptide", "excerpt": "The LIVE/DEAD® Viability/Cytotoxicity kit employs a fluorescent dye to assess mammalian cell viability. Calcein AM and ethidium homodimer-1 (EthD-1) are found to be optimal dyes for this purpose. […] cells are distinguished from dead cells by the presence of intracellular esterase activity, determined by enzymatic conversion of non-fluorescen calcein AM to intensely fluorescent calcein. Calcein, which is a polyanionic dye, is well retained inside living cells producing an intense uniform green fluorescence. EthD-1 is excluded by intact membranes of viable cells, but it will enter cells with damaged cell membrane and bind to nucleic acids, producing a bright red fluorescence in dead cells. The protocol for using the live/dead kit is supplied by the manufacturer.\nTo quantify the cytotoxic action of Peptide 1, 20 000 cells were placed in 24 well multiwell dishes. […] After 1-3-6 hrs the cellular viability was assessed using the Molecular Probes LIVE/DEAD kit. […]\nThe cells were then observed using an inverted fluorescence microscope (Nikon Eclipse 2000E, Tokyo, Japan) equipped with FITC (green fluorescence) and TRITC (red fluorescence) filter optics. […] The proportion of viable cells (cells with green fluorescence) and the proportion of dead cells (red fluorescence) where then assessed by counting 100 cells. […]"}, "[2]": {"test_system": "normal human forskin fibroblasts (HFF1)", "conditions": "20 μg/ml, exposure for 90 minutes", "method": "MTT is a yellowish solution and is converted to water-insoluble MTT-formazan of dark blue colour by mitochondrial dehydrogenases of living cells. The blue crystals are solubilized with acidifies isopropanol and the intensity is measured colorimetrically at a wavelength of 570 nm (protocol for the MTT assay was used according to the manufacturer's instructions). Using a MTT cell viability assay, a comparison was made between normal human forskin fibroblasts (HFF1) and three cancer cell lines T986 (neuroblastoma cells), GaMG (glioblastoma), and A172 (glioblastoma)."}},
  "data": [
    {"substance": "Ac-YGRKKRRQRRRGKTLRVAKAIYKRYIE-NH2 [Peptide 1]", "values": [
      {"measurement": "cytotoxic action (red cells)", "setting": "[1]", "result": "slight cytotoxic action"},
      {"measurement": "surviving fraction", "setting": "[2]", "result": 58, "unit": "%"}
    ]}
  ]
}
